Columns and labels:
Assay in all cases: relative viability (nuclei count vs DMSO), 5 days (fraction); higher = more cells survive
Gemcitabine + Foretinib = compound: Nc1ccn([C@@H]2O[C@H](CO)[C@@H](O)C2(F)F)c(=O)n1 [Gemcitabine] + COc1cc2c(Oc3ccc(NC(=O)C4(C(=O)Nc5ccc(F)cc5)CC4)cc3F)ccnc2cc1OCCCN1CCOCC1 [Foretinib] (partner 0.25 µM)
Method in brief: (§1)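 The day after seeding in 1536-well plates, lung cancer cell lines were treated by pin tool with a single drug, or with a fixed anchor-drug dose together with five library-drug doses (not always all listed) in √10 steps. After 5 days, a combined fix-and-stain solution (final 0.05% Triton X-100, 1% formaldehyde, 1 ug/ml Hoechst) was added. Nuclei counted on 4× images gave relative viability as treated counts over vehicle counts, reported as the median of duplicate plates.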

Gemcitabine + OSI-027 = compound: Nc1ccn([C@@H]2O[C@H](CO)[C@@H](O)C2(F)F)c(=O)n1 [Gemcitabine] + COc1cccc2cc(-c3nc([C@H]4CC[C@H](C(=O)O)CC4)n4ncnc(N)c34)[nH]c12 [OSI-027] (partner 0.5 µM)
Method in brief: as §1

Gemcitabine + AZD7762 = compound: Nc1ccn([C@@H]2O[C@H](CO)[C@@H](O)C2(F)F)c(=O)n1 [Gemcitabine] + NC(=O)Nc1cc(-c2cccc(F)c2)sc1C(=O)N[C@H]1CCCNC1 [AZD7762] (partner 0.2 µM)
Method in brief: as §1

Gemcitabine + Pemetrexed = compound: Nc1ccn([C@@H]2O[C@H](CO)[C@@H](O)C2(F)F)c(=O)n1 [Gemcitabine] + Nc1nc2[nH]cc(CCc3ccc(C(=O)N[C@@H](CCC(=O)O)C(=O)O)cc3)c2c(=O)[nH]1 [Pemetrexed] (partner 0.2 µM)
Method in brief: as §1

Cell Line	relative viability (Gemcitabine + Foretinib; first compound 0.001 µM)	relative viability (Gemcitabine + Foretinib; first compound 0.003162 µM)	relative viability (Gemcitabine + Foretinib; first compound 0.01 µM)	relative viability (Gemcitabine + Foretinib; first compound 0.03162 µM)	relative viability (Gemcitabine + Foretinib; first compound 0.1 µM)	relative viability (Gemcitabine + OSI-027; first compound 0.001 µM)	relative viability (Gemcitabine + OSI-027; first compound 0.003162 µM)	relative viability (Gemcitabine + OSI-027; first compound 0.01 µM)	relative viability (Gemcitabine + OSI-027; first compound 0.03162 µM)	relative viability (Gemcitabine + OSI-027; first compound 0.1 µM)	relative viability (Gemcitabine + AZD7762; first compound 0.001 µM)	relative viability (Gemcitabine + AZD7762; first compound 0.003162 µM)	relative viability (Gemcitabine + AZD7762; first compound 0.01 µM)	relative viability (Gemcitabine + AZD7762; first compound 0.03162 µM)	relative viability (Gemcitabine + AZD7762; first compound 0.1 µM)	relative viability (Gemcitabine + Pemetrexed; first compound 0.001 µM)	relative viability (Gemcitabine + Pemetrexed; first compound 0.003162 µM)	relative viability (Gemcitabine + Pemetrexed; first compound 0.01 µM)	relative viability (Gemcitabine + Pemetrexed; first compound 0.03162 µM)	relative viability (Gemcitabine + Pemetrexed; first compound 0.1 µM)
EPLC-272H	0.636	0.815	0.416	0.075	0.0466	0.334	0.298	0.159	0.136	0.105	0.19	0.141	0.0918	0.101	0.0686	0.316	0.33	0.132	0.178	0.108
LCLC-103H	0.78	0.853	0.663	0.348	0.233	0.442	0.449	0.418	0.288	0.296	0.788	0.761	0.66	0.24	0.215	0.423	0.435	0.44	0.407	0.392
NCI-H2405	0.996	1	0.676	0.254	0.229	0.641	0.314	0.32	0.211	0.196	0.518	0.23	0.193	0.193	0.195	1	0.91	0.552	0.228	0.184
HCC-15	1.12	1.07	1.01	0.152	0.0815	0.773	0.624	0.578	0.142	0.0829	1.03	1.21	1.18	0.129	0.113	0.224	0.226	0.226	0.229	0.109
PC-3 [JPC-3]	1.15	0.847	0.605	0.28	0.228	0.799	0.656	0.378	0.259	0.257	0.761	0.482	0.336	0.35	0.299	1.23	0.566	0.434	0.414	0.31
NCI-H1944	0.891	0.992	0.847	0.345	0.199	0.453	0.437	0.385	0.188	0.149	0.518	0.36	0.0907	0.109	0.086	0.586	0.601	0.554	0.254	0.112
HARA	0.965	0.894	0.853	0.119	0.0735	0.734	0.68	0.388	0.175	0.0508	0.328	0.241	0.131	0.132	0.117	0.272	0.263	0.236	0.196	0.0974
NCI-H2126	1.15	1.17	1.15	0.674	0.324	0.733	0.596	0.609	0.447	0.279	0.995	1.03	0.891	0.265	0.205	0.628	0.742	0.628	0.577	0.3
LXF-289	0.974	0.966	0.803	0.106	0.107	0.93	0.77	0.236	0.0894	0.105	1.1	0.767	0.0873	0.0797	0.088	0.901	0.964	0.642	0.102	0.0843
NCI-H460	0.935	1.01	0.832	0.0311	0.0132	0.838	0.76	0.26	0.0217	0.0185	0.831	0.48	0.0469	0.026	0.0247	0.06	0.0638	0.0721	0.029	0.019
NCI-H1395	0.922	0.763	0.541	0.388	0.349	0.705	0.493	0.391	0.313	0.303	0.408	0.37	0.352	0.307	0.336	0.91	0.622	0.335	0.296	0.312
NCI-H2170	1.02	1.03	0.909	0.3	0.518	0.714	0.662	0.632	0.292	0.136	0.889	0.771	0.128	0.106	0.108	0.289	0.259	0.314	0.127	0.119
